Assay [1] has as its system PMEL CD8^+ T cells. As to the kind of experiment: CyTOF phenotyping of ex vivo expanded PMEL T cells stimulated with or without 2HC. The assay is classed as cell-based, murine. Conditions: 5 mM 2HC during ex vivo expansion, vs untreated cells (effector and exhausted phenotype). From the text: This Example describes experiments performed to apply the CyTOF technology to a comprehensively capture the phenotypic space of T cells. As described below, an in-depth understanding of the phenotype of differentially activated tumor-specific T cells can be achieved by using a CyTOF technique. […] Also used in these experiments was a palladium-based mass tag cell barcoding technique that enabled simultaneous analysis and pooling of 20 samples at a time, which allowed efficient multiplexing and reducing batch effects.
Generally, cells were suspended in supplemented media: complete RPMI 1640 media (with glutamine) with 1× non-essential amino acids, 1 mM sodium pyruvate, 0.4× vitamin solution, 92 µM 2-mercaptoethanol, 10 µM ciprofloxacin, 10% fetal bovine serum (FBS), and 50 IU/ml IL-2. At Day 0, splenocytes were used at a concentration of 2×10^6/ml, 100 µL /well in 96 well plate u-bottom. The cultures were started with 100×10^6 cells per condition, in 50 mL T cell media containing 60 IU/mL IL-2, 10 µg/mL GP100, and 5 mM 2HC (85 mg). At Day 3, the cell culture was fed with 50 µL media containing 120 IU/mL IL-2 and 5 mM 2HC. At Day 4, the cell culture was fed with 80 µL media containing 120 IU/mL IL-2 and 5 mM 2HC. […]
On Day 9, cells were counted and harvested into FACS tubes for CyTOF analysis using a panel of CYTOF biomarkers (see, e.g., FIG. 1 and Table 1). […]

Assay [2] deals with T memory stem cells. Conditions: previously reported; by altering acetyl-Coenzyme A levels; cited from earlier work.

Consider `O=C([O-])CC(O)(C(=O)[O-])C(O)C(=O)[O-].[K+].[K+].[K+]` (centres unmarked) [2HC, tripotassium 2-hydroxycitrate], for which the “shift of T cell phenotype on incubation with inhibitor of acetyl-CoA production” value in assay [1] is given as “drastically shifted T cells towards a more memory like phenotype”. The “generation of T memory stem cells” value in assay [2] was “increases the generation of T memory stem cells”.

These data come from patent US20230285557A1, “MULTI-PARALLEL ANALYSIS OF T-CELL THERAPIES” (The Board of Trustees of the Leland Stanford Junior …, priority 2020, published 2023).
